Data set [1] has as its system männlichen Ratten der Art Long Evans. The experiment in a line: animal or person. It is filed as in vivo. The conditions noted are these: for change in vivo at 12.5 mg/kg / change in vivo at 6.25 mg/kg: 504 h; for change in vivo at 6.25 mg/kg: read-out: Prozentuale Hemmung bei einer peroralen Dosis von 6,25 mg/kg; for Prozentuale Hemmung bei einer peroralen Dosis von 3,12 mg/kg: peroral 3,12 mg/kg; for Prozentuale Hemmung bei einer peroralen Dosis von 1,56 mg/kg: peroral 1,56 mg/kg; for ED50: read-out: Peroraler ED50-Wert in mg/kg an Ratten; for Therapeu-tischer Index LD50-Wert / ED50-Wert: ratio of peroral LD50 to peroral ED50, rats. Here is the method: Die Untersuchung der therapeutischen Wirkung der erfindungsgemäßen 1,2,4-Triazolderivate wurde mittels des modifizierten Newbould-Prüfversuches (Brit. J. Pharmacol., 21 [1963], Seite 127) durchgeführt. Dazu wurde in die rechen Hinterfüße von männlichen Ratten der Art Long Evans mit Gewichten von 180 bis 250 g intraplantar […] abgetötetes Mycobacterium tuberculosis in einem Volumen von 0,1 ml injiziert. Nachfolgend wurden die Ratten pro betreffenden Tag mit einer Dosis der zu untersuchenden Verbindung insgesamt 16-mal während 3 Wochen behandelt. Die Änderung des Volumens der Fußschwellung wurde 21 Tage lang täglich mit einem Quecksilber-Plethysmometer vom Lence-Typ bestimmt. Vom 10-ten Tag an wurde das Volumen des linken Hinterfußes bestimmt. Die prozentuale Hemmung wurde im Verhältnis zu diesem Volumen aus der eintretenden Änderung in der Schwellung des rechten Hinterfußes berechnet.

Data set [2] can be described thus: in vivo. The conditions noted are these: rat, po, peroral, rats, read-out: Peroraler LD50-Wert in mg/kg an Ratten.
The test system of data set [3] is Ratten. Nature of the data set: ulcerogenic side effect. It is filed as in vivo. As for the experimental part: Auch die geschwürbildende beziehungsweise ulcerogene Wirkung, eine der kritischsten Nebenwirkungen entzündungshemmender Mittel, betreffend erwiesen sich die erfindungsgemäßen 1,2,4-Triazolderivate als im Vergleich zu Handelspräparaten günstiger. So führten Einzeldosen von 15 mg/kg 1-(p-Chlorbenzoyl)-5-(methoxy)-2-(methyl)-indol-3-ylessig- säure {Indometacin} bei 100% der Ratten Geschwüre (Ulcus) herbei, während Einzeldosen von 1 000 mg/kg 1,5-Bis-[4'--(chlor)-phenyl]-3-[methylthio]-1,2,4-triazol (Verbindung des Beispieles 27) nur bei 10% der Tiere Geschwüre verursachten.

Setting [4] is: po, peroral 12,5 mg/kg, 16 doses during 3 weeks, paw swelling, rats, read-out: Prozentuale Hemmung bei einer peroralen Dosis von 12,5 mg/kg.
The mark [5] stands for this setting: 16 doses during 3 weeks, paw swelling, rats.
[6] abbreviates: po, read-out: Prozentuale Hemmung bei einer peroralen Dosis von 12,5 mg/kg.

The structures appear in SMILES notation. Where two headings read alike, the source gives them in different places.

For `CSc1nc(-c2ccc(F)cc2)n(-c2cccc(Cl)c2)n1` [Beispiel 53, 1-[3'-(Chlor)-phenyl]-5-[4"-(fluor)-phenyl]-3--[methylthio]-1,2,4-triazol], in data set [1] (setting [4]), the change in vivo at 12.5 mg/kg is -51%.

Consider `CSc1nc(-c2ccc(C(F)(F)F)cc2)n(-c2ccc(F)cc2)n1` [Beispiel 45, 1-[4'-(Fluor)-phenyl]-5-[4"-(trifluormethyl)-phenyl]--3-[methylthio]-1,2,4-triazol], for which the change in vivo at 6.25 mg/kg in data set [1] (po) is -25%. Also, in data set [1] (setting [4]), the change in vivo at 12.5 mg/kg is -48%.

In the case of `CSc1nc(-c2ccc(F)cc2)n(-c2ccc(F)cc2)n1` [Beispiel 41, 1-[4'-(Fluor)-phenyl]-5-[4"-(fluor)-phenyl]-3--[methylthio]-1,2,4-triazol], the “Prozentuale Hemmung bei einer peroralen Dosis von 3,12 mg/kg” value in data set [1] (setting [5]) is reported as -42%. In data set [1] (po), the change in vivo at 6.25 mg/kg was -57%.

As for `CSc1nc(-c2ccc(Cl)cc2)n(-c2ccc(Br)cc2)n1` [Beispiel 54, 1-[4'-(Brom)-phenyl]-5-[4"-(chlor)-phenyl]-3--[methylthio]-1,2,4-triazol], the change in vivo at 6.25 mg/kg in data set [1] (po) is -28%. In data set [1] (setting [4]), the change in vivo at 12.5 mg/kg is -56%.

As to `CSc1nc(-c2ccc(F)cc2)n(-c2ccc(Cl)cc2)n1` [Beispiel 44, 1-[4'-(Chlor)-phenyl]-5-[4"-(fluor)-phenyl]-3--[methylthio]-1,2,4-triazol], the LD50 in data set [2] came out at 170 mg/kg. Further, in data set [1] (setting [5]), the “Prozentuale Hemmung bei einer peroralen Dosis von 1,56 mg/kg” value was -36% and the “Prozentuale Hemmung bei einer peroralen Dosis von 3,12 mg/kg” value is reported as -64%. In addition, in data set [1] (po), the change in vivo at 6.25 mg/kg is -53% and the ED50 was 2.1 mg/kg. Besides, the “Therapeu-tischer Index LD50-Wert / ED50-Wert” value in data set [1] was 81,0.

Regarding `CCCCC1C(=O)N(c2ccccc2)N(c2ccccc2)C1=O` [Vergleichs-substanz A, 4-(Butyl)-1,2-di-(phenyl)-pyrazolidin-3,5-dion, reference compound], the change in vivo at 12.5 mg/kg in data set [1] (setting [4]) was -7%.

Consider `CSc1nc(-c2cccs2)n(-c2ccc(Cl)cc2)n1` [Beispiel 30, 1-[4'-(Chlor)-phenyl]-5-[thien-2"-yl]-3-[methylthio]--1,2,4-triazol], for which the change in vivo at 12.5 mg/kg in data set [1] (setting [4]) was -44%.

Consider `Clc1ccc(-c2nc(SCc3ccccn3)nn2-c2ccc(Cl)cc2)cc1` [Beispiel 4, 1,5-Bis-[4'-(chlor)-phenyl]-3-[pyrid-2"-ylmethyl-thio]-1,2,4-triazol], for which, in data set [1] (setting [5]), the “Prozentuale Hemmung bei einer peroralen Dosis von 3,12 mg/kg” value was -38%. Moreover, the change in vivo at 6.25 mg/kg in data set [1] (po) was -40%.

Consider `COc1ccc2c(c1)c(CC(=O)O)c(C)n2C(=O)c1ccc(Cl)cc1` [Indometacin, 1-(p-Chlorbenzoyl)-5-(methoxy)-2-(methyl)-indol-3-ylessig-säure, reference compound], for which, in data set [3] (single dose 15 mg/kg, share of rats with ulcers), the “Ratten mit Geschwüren (Ulcus)” value stood at 100%.

As to `CSc1nc(-c2ccc(F)cc2)n(-c2cccc(C(F)(F)F)c2)n1` [Beispiel 47, 1-[3'-(Trifluormethyl)-phenyl]-5-[4"-(fluor)-phenyl]--3-[methylthio]-1,2,4-triazol], in data set [1] (po), the change in vivo at 6.25 mg/kg is -22%. Further, in data set [1] (setting [4]), the change in vivo at 12.5 mg/kg was -53%.

On to `CSc1nc(-c2ccc(Cl)cc2)n(-c2cccc(C(F)(F)F)c2)n1` [Beispiel 42, 1-[3'-(Trifluormethyl)-phenyl]-5-[4"-(Chlor)-phenyl]--3-[methylthio]-1,2,4-triazol], for which, in data set [1] (po), the change in vivo at 6.25 mg/kg was -48%.

As to `COc1ccc2cc([C@H](C)C(=O)O)ccc2c1` [Vergleichs-substanz B, (+)-2-[6'--(Methoxy)-naphth-2'-yl]-propionsäure, reference compound], the ED50 in data set [1] (po) worked out at 12.5 mg/kg. Moreover, the change in vivo at 10 mg/kg in data set [1] (setting [6]) is -34%.

Take `CSc1nc(-c2ccccc2SC)n(-c2ccc(Cl)cc2)n1` [Beispiel 14, 1-[4'-(Chlor)-phenyl]-5-[2"-(methylthio)-phenyl]-3--[methylthio]-1,2,4-triazol]: the “Prozentuale Hemmung bei einer peroralen Dosis von 3,12 mg/kg” value in data set [1] (setting [5]) was -5%. Also, in data set [1] (setting [4]), the change in vivo at 12.5 mg/kg is -51%.

Take `CSc1nc(-c2ccc(Cl)cc2)n(-c2ccc(Cl)cc2)n1` [Beispiel 27, 1,5-Bis-[4'-(chlor)-phenyl]-3--[methylthio]-1,2,4-triazol]: in data set [1] (setting [5]), the “Prozentuale Hemmung bei einer peroralen Dosis von 1,56 mg/kg” value is listed as -17% and the “Prozentuale Hemmung bei einer peroralen Dosis von 3,12 mg/kg” value is listed as -39%. For the same molecule, in data set [1] (po), the change in vivo at 6.25 mg/kg was -55% and the ED50 is 7.4 mg/kg. For the same molecule, the change in vivo at 12.5 mg/kg in data set [1] (setting [6]) is -67%. The “Tiere mit Geschwüren” value in data set [3] (single dose 1 000 mg/kg, share of animals with ulcers) is listed as 10%.

For `CSc1nc(-c2ccc(Cl)cc2)n(-c2ccc(F)cc2)n1` [Beispiel 55, 1-[4'-(Fluor)-phenyl]-5-[4"-(chlor)-phenyl]-3--[methylthio]-1,2,4-triazol], the LD50 in data set [2] amounted to 380 mg/kg. Also, in data set [1] (setting [5]), the “Prozentuale Hemmung bei einer peroralen Dosis von 1,56 mg/kg” value is recorded as -12% and the “Prozentuale Hemmung bei einer peroralen Dosis von 3,12 mg/kg” value is -26%. Also, in data set [1] (po), the change in vivo at 6.25 mg/kg is -68% and the ED50 came out at 6.8 mg/kg. Moreover, the “Therapeu-tischer Index LD50-Wert / ED50-Wert” value in data set [1] is on record as 55,9.

These data come from patent EP0155486A1, “1,3,5-Trisubstituted 1,2,4-triazole derivatives, process for their preparation and medicinal preparations containing them” (priority 1984, dated 1985).
